In patent US20220133782A1, “METHODS AND COMPOSITIONS FOR USING CINNAMALDEHYDE AND ZINC FOR WEIGHT MANAGEMENT” (SOCIÉTÉ DES PRODUITS NESTLÉ S.A., priority 2014, published 2022):

Legend:
[1] = Nose temperature after ingestion in human subjects; assay type: in vivo; details: fifteen minutes following ingestion, FIG. 7
Protocol: The nose temperature of the subjects was analyzed over the fifteen minutes following ingestion of the various compounds.

[2] = Chin temperature after ingestion in human subjects (sympathetic autonomic activity); assay type: in vivo; details: for AUC difference in chin temperature relative to placebo: Z10, comparison vs Pl (placebo)
Protocol: The chin temperature of the subjects was measured over the eighty minutes following ingestion of the various compounds. […] The increased sympathetic activity identified by measuring the facial temperature (increased blood flow on the chin) might explain the increased energy expenditure measured by indirect calorimetry.

[3] = Comparative taste testing in human subjects; assay type: in vivo; details: 4.8 ppm capsaicin or 350 ppm cinnamaldehyde, FIG. 9
Protocol: Human subjects were administered a composition comprising 4.8 ppm capsaicin or 350 ppm cinnamaldehyde. […] 87.9% of the participants judged capsaicin intense to very intense, compared to only 20.5% for cinnamaldehyde. To achieve a similar effect on fat oxidation of capsaicin and cinnamaldehyde, the dose of capsaicin is about 1.5 times less than the maximum that can be used as a flavor (7 ppm according to Fenaroli's Handbook; Burdock, 2010), and the dose of cinnamaldehyde is about 17.5 times less than the maximum that can be used as a flavor (6191.0 ppm according to Fenaroli's Handbook; Burdock, 2010).

[4] = Energy expenditure after ingestion in human subjects; assay type: in vivo
Protocol: Human subjects were administered placebo, a cooling flavor, capsaicin, or cinnamaldehyde. The energy expenditure was measured over the eighty minutes following ingestion.

[5] = Postprandial fat oxidation after ingestion in human subjects; assay type: in vivo
Protocol: The postprandial fat oxidation was measured over the 90 minutes following ingestion of the various compounds.

[6] = target: T1, hTRPA1 expressed in CHO cells (Homo sapiens, UniProt O75762); test: In vitro activity of hTRPA1 expressed in CHO cells (intracellular calcium, fluorescent dye); assay type: cell-based; set-up: in vitro activity of hTRPA1, positive control efficacy: dose or concentration left out as unconfirmed
T1 construct: expressed in transfected cells; host or cells: CHO cells

TRPA1 = TRPA1 (Homo sapiens, UniProt O75762); details: background statement; read-out: EC50 for activation of TRPA1; cited from earlier work
TRPV1 = TRPV1 (Homo sapiens, UniProt Q8NER1); details: background statement; cited from earlier work
TRPM8 = TRPM8 (Homo sapiens, UniProt Q7Z2W7); details: background statement; cited from earlier work
[7] = flavoring level of cinnamaldehyde judged significantly less intense than capsaicin

T1 sequence (O75762 whole entry): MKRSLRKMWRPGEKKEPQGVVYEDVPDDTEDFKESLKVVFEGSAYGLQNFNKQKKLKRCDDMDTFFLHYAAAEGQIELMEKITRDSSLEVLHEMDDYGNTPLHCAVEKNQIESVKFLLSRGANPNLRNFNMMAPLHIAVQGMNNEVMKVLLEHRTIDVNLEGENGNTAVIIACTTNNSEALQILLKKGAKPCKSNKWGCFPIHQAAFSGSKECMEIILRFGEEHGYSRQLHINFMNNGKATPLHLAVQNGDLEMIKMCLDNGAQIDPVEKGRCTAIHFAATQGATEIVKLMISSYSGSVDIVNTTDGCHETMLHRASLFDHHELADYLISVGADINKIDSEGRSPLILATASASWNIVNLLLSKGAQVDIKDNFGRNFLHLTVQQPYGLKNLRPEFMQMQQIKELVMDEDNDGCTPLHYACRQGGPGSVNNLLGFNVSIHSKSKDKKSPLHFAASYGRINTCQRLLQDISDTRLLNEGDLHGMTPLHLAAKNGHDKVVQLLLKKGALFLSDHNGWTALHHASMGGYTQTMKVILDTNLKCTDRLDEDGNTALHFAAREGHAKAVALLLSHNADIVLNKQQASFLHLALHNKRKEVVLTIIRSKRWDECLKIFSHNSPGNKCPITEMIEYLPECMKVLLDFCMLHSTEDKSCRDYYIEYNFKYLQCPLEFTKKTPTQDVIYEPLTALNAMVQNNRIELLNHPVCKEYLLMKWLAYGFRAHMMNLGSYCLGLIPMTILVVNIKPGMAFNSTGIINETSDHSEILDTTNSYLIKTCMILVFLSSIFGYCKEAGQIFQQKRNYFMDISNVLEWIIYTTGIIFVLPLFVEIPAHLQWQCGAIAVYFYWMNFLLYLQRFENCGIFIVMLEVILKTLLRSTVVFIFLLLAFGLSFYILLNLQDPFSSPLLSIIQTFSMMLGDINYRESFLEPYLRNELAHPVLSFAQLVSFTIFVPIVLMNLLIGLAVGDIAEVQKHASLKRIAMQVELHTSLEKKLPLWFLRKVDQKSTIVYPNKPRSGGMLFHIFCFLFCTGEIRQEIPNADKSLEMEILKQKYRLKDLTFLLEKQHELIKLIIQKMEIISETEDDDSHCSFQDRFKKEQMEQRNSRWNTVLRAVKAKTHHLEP
TRPA1, sequence (O75762 whole entry, species assumed): as the sequence (O75762 whole entry) above
TRPV1, sequence (Q8NER1 whole entry, species assumed): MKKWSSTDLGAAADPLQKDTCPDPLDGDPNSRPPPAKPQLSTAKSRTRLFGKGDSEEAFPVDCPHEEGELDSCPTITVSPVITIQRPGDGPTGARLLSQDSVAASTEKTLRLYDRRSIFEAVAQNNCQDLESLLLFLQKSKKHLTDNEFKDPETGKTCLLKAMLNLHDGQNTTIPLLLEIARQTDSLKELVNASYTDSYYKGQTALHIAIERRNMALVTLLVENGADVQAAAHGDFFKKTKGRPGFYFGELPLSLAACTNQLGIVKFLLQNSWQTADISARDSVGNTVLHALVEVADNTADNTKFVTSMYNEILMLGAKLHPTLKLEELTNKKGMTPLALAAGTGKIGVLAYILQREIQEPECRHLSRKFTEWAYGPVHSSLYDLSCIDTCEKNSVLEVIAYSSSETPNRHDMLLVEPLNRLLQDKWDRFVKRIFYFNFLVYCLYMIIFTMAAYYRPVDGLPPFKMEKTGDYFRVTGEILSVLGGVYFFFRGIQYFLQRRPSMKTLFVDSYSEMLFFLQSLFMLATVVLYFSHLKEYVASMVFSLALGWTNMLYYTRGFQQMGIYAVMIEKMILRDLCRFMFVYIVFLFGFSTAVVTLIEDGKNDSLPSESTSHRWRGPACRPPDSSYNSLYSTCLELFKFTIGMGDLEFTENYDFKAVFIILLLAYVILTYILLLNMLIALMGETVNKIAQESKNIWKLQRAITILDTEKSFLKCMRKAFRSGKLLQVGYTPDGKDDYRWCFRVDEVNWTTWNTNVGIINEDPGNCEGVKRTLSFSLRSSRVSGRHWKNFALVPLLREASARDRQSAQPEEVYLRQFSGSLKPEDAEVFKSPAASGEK
TRPM8, sequence (Q7Z2W7 whole entry, species assumed): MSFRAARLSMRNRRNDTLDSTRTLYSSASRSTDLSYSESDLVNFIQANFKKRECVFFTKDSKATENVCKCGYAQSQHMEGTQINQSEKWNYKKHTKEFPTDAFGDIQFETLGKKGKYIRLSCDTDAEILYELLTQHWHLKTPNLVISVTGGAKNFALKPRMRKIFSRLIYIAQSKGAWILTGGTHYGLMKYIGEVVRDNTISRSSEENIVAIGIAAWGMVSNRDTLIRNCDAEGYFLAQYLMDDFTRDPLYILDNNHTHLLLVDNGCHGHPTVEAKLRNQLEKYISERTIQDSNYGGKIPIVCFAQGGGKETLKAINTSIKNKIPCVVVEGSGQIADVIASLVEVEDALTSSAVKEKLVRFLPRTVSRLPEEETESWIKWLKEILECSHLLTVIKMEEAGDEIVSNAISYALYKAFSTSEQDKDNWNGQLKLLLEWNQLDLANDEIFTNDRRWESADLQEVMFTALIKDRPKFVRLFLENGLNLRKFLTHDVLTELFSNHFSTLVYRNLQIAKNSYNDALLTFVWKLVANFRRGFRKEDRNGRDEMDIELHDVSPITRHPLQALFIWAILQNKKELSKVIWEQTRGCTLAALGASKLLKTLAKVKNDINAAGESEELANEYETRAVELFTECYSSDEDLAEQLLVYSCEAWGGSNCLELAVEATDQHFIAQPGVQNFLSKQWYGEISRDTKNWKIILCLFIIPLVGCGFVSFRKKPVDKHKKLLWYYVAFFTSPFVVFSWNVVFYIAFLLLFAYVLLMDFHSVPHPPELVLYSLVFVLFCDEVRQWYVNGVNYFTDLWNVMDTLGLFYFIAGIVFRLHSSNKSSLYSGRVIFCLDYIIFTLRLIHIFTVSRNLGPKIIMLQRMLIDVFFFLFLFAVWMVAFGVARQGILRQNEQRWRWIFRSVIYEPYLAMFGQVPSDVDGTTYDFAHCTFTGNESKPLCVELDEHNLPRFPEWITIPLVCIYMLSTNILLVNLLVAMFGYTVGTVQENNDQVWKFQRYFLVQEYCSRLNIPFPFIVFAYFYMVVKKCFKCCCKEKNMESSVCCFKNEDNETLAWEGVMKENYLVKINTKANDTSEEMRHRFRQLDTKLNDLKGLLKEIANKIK

| SMILES | nose temperature [1] | AUC difference in chin temperature relative to placebo ([2]; human subjects) | participants who judged the taste intense to very intense [3] | impact on energy expenditure compared to capsaicin [4, 7] | energy expenditure compared to placebo ([4]; human subjects, over the eighty minutes following ingestion, FIGS. 3 and 4) | effect on fat oxidation compared to capsaicin [5, 7] | postprandial fat oxidation compared to placebo ([5]; human subjects, over the 90 minutes following ingestion, FIGS. 5 and 6) | impact on sympathetic nervous system activity compared to capsaicin [2, 7] | chin temperature relative to baseline ([2]; human subjects, over the eighty minutes following ingestion, FIG. 8) | in vitro activity of hTRPA1, positive control efficacy ([6]; according to a dose-response curve) | EC50 (TRPA1) | activation of TRPV1 (TRPV1) | activation of TRPM8 (TRPM8) | zinc concentration required for synergy with cinnamaldehyde on TRPA1 ([6]; in vitro) |
| --- | --- | --- | --- | --- | --- | --- | --- | --- | --- | --- | --- | --- | --- | --- |
| COc1cc(CNC(=O)CCCC/C=C/C(C)C)ccc1O [capsaicin, reference compound] | increase nose temperatures | 25.26 | 87.9% | – | – | – | – | – | – | – | – | – | – | – |
| O=CC=Cc1ccccc1 [cinnamaldehyde] | increase nose temperatures | 34.072 | – | significantly higher impact | increased | equivalent effect | maintained at higher levels | significantly higher impact | increases chin temperature for a prolonged time | maximum efficacy | ~10 µM | not | not | – |
| [Zn] [zinc] | – | – | – | – | – | – | – | – | – | – | – | – | – | < 1 µM |
